Key:
S. aureus Xen29 [1] = assay: In vitro cellular uptake of radiotracer; assay type: cell-based; details: 1 μCi/mL, 120 min incubation, versus heat killed bacteria
Method: (§1) FIG. 12. In vitro 2-[^18F]F-NB uptake by S. aureus Newman and Xen29. 1 μCi of 2-[^18F]F-NB was incubated in a 1 mL culture of S. aureus Newman (green bars) or S. aureus Xen29 (blue bars) for 5, 30, 60, 90 and 120 min.
(§2) S. aureus Newman and S. aureus Xen29 were aerobically grown to OD600 0.6 in LB media at 37° C. To evaluate the uptake of 2-[^18F]F-NB, the bacteria were incubated with 1 μCi/mL of the radiotracer at 37° C. with rapid agitation. Heat-killed (90° C. for 30 min) bacteria were similarly incubated with 2-[^18F]FNB. Aliquots (1 mL) were removed after 5, 30, 60, 90, and 120 min and pelleted by centrifugation (11 000 rpm, 3 min) and washed three times with cold phosphate buffered saline (PBS). Total radioactivity was measured using an automated gamma counter and is reported as the percentage of radioactivity added to the culture. A minimum of five replicates were used for each assay and time point.

S. aureus Newman [2] = assay: In vitro cellular uptake of radiotracer; assay type: cell-based; details: 1 μCi/mL, 120 min incubation, versus heat killed bacteria
Method: as §1, §2

S. aureus Xen29 [3] = assay: PET/CT imaging of rat triceps infection / sterile inflammation model (S. aureus Xen29); assay type: in vivo, Sprague-Dawley rats
Method: FIG. 5. PET/CT imaging of rats infected in the right triceps with the bioluminescent Xen29 strain of S. aureus. (A) Experimental design. (B) 2-[^18F]F-ENB-derived radioactivity accumulates in the infected triceps (red arrow) but not the inflamed triceps (yellow arrow) at 3 h post tracer administration.
FIG. 8. PET/CT imaging of 2-[^18F]F-NB in a rat model of S. aureus Xen29 infection. (A) Radiosynthesis of 2-[^18F]F-NB. (i) [^18F]potassium fluoride, Kryptofix222, potassium carbonate, dimethyl sulfoxide, r.t., 10 min; (ii) 2 M potassium hydroxide in H2O, 105° C., 10 min; Overall decay-corrected radiochemical yield: 26% (n=1).
FIG. 10. Time activity curve (TAC) in infected triceps, inflamed triceps and blood and biodistribution of 2-[^18F]F-NB in major organs. (a) The right triceps of the rats were infected with S. aureus Xen 29 and the left triceps were injected with a 10-fold higher burden of heat-killed S. aureus to induce sterile inflammation. The rats were scanned by PET/CT for 120 min (rats with sterile inflammation in the left triceps) immediately starting from tracer administration. The PET scan was separated into ten frames (1-min) and twenty-two frames (5-min). TACs of infected triceps (blue), inflamed triceps (grey) and blood (left heart ventricle, red) are shown. Data represented as mean with standard error of the mean (n=4). (b) Time-dependent accumulation of 2-[^18F]F-NB in infected and inflamed triceps compared to the blood (left heart ventricle). Data are presented as the mean and standard error of the mean (n=4). […]
(§3) S. aureus (Newman or Xen29) was cultured overnight by inoculating 5 μL of bacteria from a glycerol stock into 10 mL of fresh cation-adjusted Mueller-Hinton (CAMH) broth or tryptic soy broth (TSB). […] After imaging, the infected triceps were collected, homogenized in PBS using a hand-held homogenizer, and the bacterial burden at the time of imaging was determined by plating the muscle tissues onto solid MH medium. After overnight incubation at 37° C., CFUs were quantified by enumeration. […]

S. aureus Xen29 [4] = assay: Rescue of sulfamethoxazole antibacterial effect (MIC, microbroth dilution in M9 media); assay type: cell-based
Method: FIG. 13. Impact of PABA analogues on the antibacterial activity of sulfamethoxazole (SMX).
Antibacterial susceptibility tests for aerobically growing bacteria were performed with a modified microbroth dilution assay according to the Clinical and Laboratory Standard Institute in transparent 96-well plates (CLSI. 2006). S. aureus Xen29 (PerkinElmer) were utilized in this study. Briefly, bacteria were grown to mid log phase (OD600 of 0.6-0.7) in cation-adjusted Mueller-Hinton (CAMH) media at 37° C. in an orbital shaker. Subsequently, bacteria were resuspended in the M9 media. A final concentration of 10^6 CFU/mL per well was added to M9 media (1% glucose, 1% casamino acids, 1 mM thiamine, 0.05 mM nicotinamide, 2 mM MgCl2, 0.1 mM CaCl2) containing 2-fold dilutions of SMX to give final concentrations ranging from 0.05 to 100 μg/mL either alone or in the presence of PABA (0.8 μg/mL and 4 μg/mL), F-PABA (0.8 μg/mL and 4 μg/mL), F-NB (10 μg/mL, 20 μg/mL and 40 μg/mL), or F-NAP (10 μg/mL, 20 μg/mL and 40 μg/mL). The plate was examined for bacteria growth using a UV-vis plate reader after 24 h incubation at 37° C. The MIC was recorded as the lowest SMX concentration (μM) required to inhibit at least 90% of bacterial growth as judged by the absorbance of the culture media.

DHPS = DHPS (Staphylococcus aureus, UniProt O05701); assay: HPPK-DHPS-DHFR coupled assay; assay type: biochemical; details: concentration of 80 μM
DHPS, sequence (O05701 whole entry): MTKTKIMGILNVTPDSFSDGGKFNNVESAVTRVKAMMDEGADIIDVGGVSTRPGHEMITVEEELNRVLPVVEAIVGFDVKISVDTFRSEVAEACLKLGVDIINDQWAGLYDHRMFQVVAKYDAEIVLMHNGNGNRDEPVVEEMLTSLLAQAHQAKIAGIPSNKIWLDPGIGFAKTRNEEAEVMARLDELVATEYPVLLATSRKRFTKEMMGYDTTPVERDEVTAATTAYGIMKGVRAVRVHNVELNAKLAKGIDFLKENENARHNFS

S. aureus Newman [5] = assay: PET/CT imaging of rat triceps infection / sterile inflammation model (S. aureus Newman); assay type: in vivo, Sprague-Dawley rats; details: 60-80 min after tracer injection
Method: FIG. 3. PET/CT imaging of a rat model of S. aureus Newman-induced triceps infection. (A) [^18F]FDG PET/CT of a rat in which 8.2±0.2 log10 CFU of S. aureus Newman has been injected into the right triceps (red arrow) and with sterile inflammation in the left triceps (yellow arrow). The image was acquired 60-80 min after tracer injection. (B) Comparison of [18F]FDG accumulation 60-80 min postinjection at sites of infection and sterile inflammation, represented as % injected dose per cc (% ID/cc). […] (D) Comparison of 2-[^18F]F-ENB accumulation in the infected triceps and inflamed triceps 180-200 min after tracer injection: ***P<0.001 from a two-tailed Mann-Whitney U Test (n=7). (E) Ex vivo PET imaging of the excised infected triceps. The area of infection is highlighted in yellow. […]
as §3

bacterial cells = assay: MIC / toxicity of F-PABA; assay type: cell-based
S. aureus NfsB = assay type: biochemical; details: NADH 40 μM, substrate varied, Michaelis-Menten fit
Method: F-ENB, F-NB and F-NAP by NfsB was performed in 50 mM Tris-HCl buffer (pH 7.4) containing 5 mM EDTA, and 40 μM NADH in a total reaction volume of 500 μL. The reaction was initiated by adding enzyme (22 nM) and the consumption of NADH was monitored at 340 nm. […] Initial velocities as a function of substrate concentration were fitted to the Michaelis-Menten equation using GraphPad Prism 4. Each experiment was performed in triplicate and all the data points were included when the data were fit by the Michaelis-Menten equation.
The nitroreductase assay was performed at room temperature in 50 mM Tris-HCl buffer, pH 7.4, containing 5 mM EDTA in a total reaction volume of 500 μL. Reactions were initiated by the addition of NfsB to a final concentration of 45 nM, and the consumption of NADH was continuously monitored at 340 nm. […] The experiments were performed in triplicate and the initial velocities as a function of substrate concentration were globally fit to the Michaelis-Menten equation using GraphPad Prism 4.

## O=C(O)c1ccc([N+](=O)[O-])cc1[18F] [2-[^18F]F-NB, 2-[^18F]F-4-nitrobenzoate]
S. aureus Xen29 [1]
  uptake of radiotracer by live bacteria: Time dependent uptake
S. aureus Newman [2]
  uptake of radiotracer by live bacteria: Time dependent uptake
S. aureus Xen29 [3]; 3 h post injection, ROI analysis
  signal at the infection site versus site of sterile inflammation: 17 fold
S. aureus Xen29 [3]; 180 min post tracer injection
  localisation of radioactive signal: localized at the site of infection

## Cc1cc(NS(=O)(=O)c2ccc(N)cc2)no1 [sulfamethoxazole]
S. aureus Xen29 [4]; Staphylococcus aureus, XEN29, 24 h, M9 media, read-out: MIC of sulfamethoxazole alone
  MIC: 1.56 µg/mL

## Nc1ccc(C(=O)O)cc1 [PABA, p-aminobenzoic acid]
S. aureus Xen29 [4]
  rescue of growth in the presence of sulfamethoxazole: bacterial regrowth in the presence of sulfamethoxazole occurred

## CC(=O)c1ccc(N)cc1F [2-fluoro-4-aminoacetophenone, 2-Fluoro-4-aminoacetophenone]
DHPS
  substrate for DHPS: not an efficient substrate for DHPS

## O=C[C@H]([18F])[C@@H](O)[C@H](O)[C@H](O)CO [[^18F]FDG, 2-Deoxy-2-[18F]fluoro-D-glucose]
S. aureus Newman [5]
  radioactivity in the infected triceps: 0.8 % ID/cc
S. aureus Newman [5]; sterile inflammation
  radioactivity in the inflamed triceps: 1.2 % ID/cc

## Nc1ccc(C(=O)O)c(F)c1 [F-PABA, 2-fluoro-4-aminobenzoic acid]
S. aureus Xen29 [4]
  rescue of growth in the presence of sulfamethoxazole: rescued bacterial growth in a concentration-dependent manner
S. aureus Xen29 [4]; 0.8 μg/mL F-PABA
  MIC of sulfamethoxazole in the presence of 0.8 μg/mL F-PABA: 12.5 µg/mL
  increase of sulfamethoxazole MIC by 0.8 μg/mL F-PABA: 8 fold
S. aureus Xen29 [4]; 4 μg/mL F-PABA
  MIC of sulfamethoxazole in the presence of 4 μg/mL F-PABA: over 100 μg/mL
Bacterial cells
  MIC: > 100 µg/mL
  toxicity to bacterial or mammalian cells: not toxic to either bacterial or mammalian cells

## CC(=O)c1ccc([N+](=O)[O-])cc1F [2-F-NAP, 2-fluoro-4-nitroacetophenone]
S. aureus Xen29 [4]
  rescue of growth in the presence of sulfamethoxazole: unable to rescue growth

## CCOC(=O)c1ccc([N+](=O)[O-])cc1F [2-F-ENB, Ethyl 2-fluoro-4-nitrobenzoate]
S. aureus NfsB
  kcat: 16.1 ± 1.7 s⁻¹

## O=C(O)c1ccc([N+](=O)[O-])cc1F [2-F-NB, 2-fluoro-p-nitrobenzoate]
S. aureus Xen29 [4]
  rescue of growth in the presence of sulfamethoxazole: antagonized the activity of sulfamethoxazole
S. aureus Xen29 [4]; 40 μg/mL 2-F-NB
  MIC of sulfamethoxazole in the presence of 40 μg/mL 2-F-NB: 12.5 µg/mL
S. aureus NfsB
  kcat: 12.4 ± 1.6 s⁻¹

Reference: patent publication US20230226228A1, “POSITRON IMAGING TOMOGRAPHY IMAGING AGENT COMPOSITION AND METHOD FOR DETECTION OF BACTERIAL INFECTION” (priority 2020, published 2023)
